The record followed here is US9616047B2, “Inhibitors of beta-catenin in treatment of colorectal cancer” (Regents of the University of Minnesota, priority 2014, dated 2017).

“Also recorded” adds a separate entry of the source.

One data set concerns HT-29 colon cancer cells. The data set can be described thus: Soft agar assay, anchorage-independent growth, HT29. The class given is cell-based. As to the method: (§1) FIG. 2. […] HCT116 and HT-29 colon cancer cells. Colony formation of two cell lines were inhibited by treatment of β-catenin inhibitor candidates. Cells (8×10^3/ml) were incubated with or without HI-B5 or HI-B9 compounds in 1 mL of 0.33% BME agar containing 10% FBS or in 3.5 mL of 0.5% BME agar containing 10% FBS. The cultures were maintained at 37° C. in a 5% CO2 incubator for 7 days, after which the cell colonies were counted under a microscope.
(§2) Cells (8×10^3 per well) suspended in Basal Medium Eagle (BME) supplemented with 10% FBS were added to 0.3% agar with different doses of chemicals in a top layer over a basal layer of 0.6% agar. The cultures were maintained at 37° C. in a 5% CO2 incubator for 2 wk and then colonies were counted under a microscope using the Image-Pro Plus Software (v.4) program (Media Cybernetics).

Data set [1] deals with β-catenin/Tcf-4 luciferase activity. The data set can be described thus: β-catenin/Tcf-4 luciferase reporter assay (TOP-flash/FOP-flash) in HCT116. The class given is cell-based. The following applies: normalized to Renilla, 24 h treatment. From the text:
(§3) FIGS. 1A-C. HI-B1, HI-B5 and HI-B9 inhibit beta-catenin/Tcf-4 luciferase activity in colon cancer cell lines. (A) Chemical structures of three compounds. (B-C) Effects of HI-B1, HI-B5 and HI-B9 on the β-catenin/Tcf-4 luciferase activity in HCT116 (B) and HT29 (C) colon cancer cell lines. […] Colon cancer cells were co-transfected with reporter genes harboring the β-catenin/Tcf binding site (TOP-flash) or a mutant β-catenin/Tcf binding site (FOP-flash), respectively, and the Renilla gene. The luciferase activity was normalized to Renilla activity.
(§4) Transient transfection was performed using jetPEI and assays to detect firefly luciferase and Renilla activities according to the manufacturer's manual (Promega). Briefly, cells were seeded onto 10-cm plates and co-transfected with 400 ng of the Renilla luciferase internal control gene and 4 μg of the TOP-flash luciferase reporter construct containing three tandem Tcf consensus binding sites upstream of luciferase cDNA, or the FOPflash luciferase reporter construct, a plasmid with mutated Tcf binding sites. After 16 h of transfection, cells were trypsinized and seeded onto 48-well plates, and cells were treated with respective chemicals for 24 h. Luciferase and Renilla activities were measured using their substrates.

Data set [2] shares this test system. The data set can be described thus: β-catenin/Tcf-4 luciferase reporter assay (TOP-flash/FOP-flash) in HT29. Format: cell-based. Particulars: normalized to Renilla, 24 h treatment.
Excerpt: as §3, §4
In general terms: Reporter assays use an easily measured gene product as a stand-in for the process of interest.

The next data set has as its target T1, Tcf-4 (Homo sapiens, UniProt Q9NQB0).
T1 construct: Protein extracts (500 μg) of colon cancer cells were mixed with Sepharose-4B beads; endogenous in cells; host or cells: HCT116 and HT29 cell lysate
The data set can be described thus: Ex vivo pull-down with compound-conjugated Sepharose 4B beads and colon cancer cell lysate: Tcf-4. The following applies: HCT116 and HT29 cell lysate. Format: binding. How it is done: (§5) Protein extracts (500 μg) of colon cancer cells were mixed with Sepharose-4B beads (as a negative control) or chemical-conjugated Sepharose 4B beads (100 μl) in reaction buffer. After being washed five times with buffer, the proteins were visualized by Western blot analysis.

Data set [3] relates to HCT116 colon cancer cells. The data set can be described thus: Soft agar assay, anchorage-independent growth, HCT116. Format: cell-based. How it is done:
as §1, §2

The next data set deals with β-catenin. The data set can be described thus: Ex vivo pull-down with compound-conjugated Sepharose 4B beads and colon cancer cell lysate: β-catenin. Format: binding. Particulars: colon cancer cell lysates; compound-conjugated Sepharose 4B beads. How it is done:
as §5

A further data set has as its system β-catenin/Tcf-4 complex. The data set can be described thus: Immunoprecipitation assay of β-catenin/Tcf-4 complex in colon cancer cells. The class given is cell-based. How it is done: Colon cancer cells treated or not treated with low or high concentrations of compounds for 24 h were disrupted with lysis buffer (50 mmol/L Tris, pH 8, 250 mmol/L NaCl, 5 mmol/L EDTA, 0.1% NP-40, 10% glycerol, and 1× protease inhibitor cocktail). Cell lysates were cleared by centrifugation, and immunoprecipitations were performed by incubating overnight with anti-β-catenin. Agarose beads were then added and samples incubated for 3 h at 4° C. After removing unbound proteins by washing five times with lysis buffer, bound proteins were harvested by boiling in sample buffer, and resolved by 8% SDS-PAGE. β-Catenin and Tcf-4 proteins were visualized using a chemiluminescence reagent (Amersham).

Data set [4] concerns target genes expressed by β-catenin/Tcf-4 complex. The data set can be described thus: Quantitative real-time PCR of β-catenin/Tcf-4 target genes. Format: cell-based. The following applies: HI-B5 40 μM or HI-B9 20 μM; 12 hr of treatment. As to the method: FIGS. 3A-D. HI-B5 and HI-B9 reduce mRNA expression level of target genes expressed by β-catenin/Tcf-4 complex. (A) axin2, (B) cyclin D1, (C) c-myc and (D) pparδ mRNA expression was reduced by HI-B5 40 μM or HI-B9 20 μM treatment. Esculetin was used as a positive control. Expression level of each gene was detected after 12 hr of chemical treatment.
RNA isolation was performed according to the Trizol reagent protocol (catalog #15596-018, Invitrogen). The concentration and the purity of RNA was determined by measuring the absorbance at 260/280 nm. cDNA was synthesized using 1 μg of RNA and the amfiRevert Platinum cDNA synthesis master mix (GenDEPOT, Cat. No. R5600). For real time PCR, 1 μl of the synthesized cDNA was loaded into 1 well of a 96-well plate for detection of specific target genes using the Power SYBR Green PCR master mix (ABsystems, #4367659).
In general terms: Quantitative PCR measures a nucleic acid by following its amplification.

The test system of data set [5] is Tcf-4/β-catenin complex. The data set can be described thus: Immunoprecipitation and Western blotting in 293T cells transfected with wildtype or mutant β-catenin. Format: cell-based. Particulars: 293T cells transfected with mutant β-catenin. How it is done:
(§6) We used computational biology technology and medicinal chemistry to identify potential inhibitors of β-catenin. […] To further confirm binding, wildtype or mutant β-catenin was transfected into 293T cells and immunoprecipitation and Western blotting were performed. […] Overall, esculetin appears to be an effective, non-toxic inhibitor of the Tcf-4/β-catenin complex.

Data set [6] has as its target T2, Tcf-4/β-catenin complex (Homo sapiens, UniProt P35222).
T2 construct: expressed in transfected cells; host or cells: 293T cells
T2 sequence (P35222 2-781): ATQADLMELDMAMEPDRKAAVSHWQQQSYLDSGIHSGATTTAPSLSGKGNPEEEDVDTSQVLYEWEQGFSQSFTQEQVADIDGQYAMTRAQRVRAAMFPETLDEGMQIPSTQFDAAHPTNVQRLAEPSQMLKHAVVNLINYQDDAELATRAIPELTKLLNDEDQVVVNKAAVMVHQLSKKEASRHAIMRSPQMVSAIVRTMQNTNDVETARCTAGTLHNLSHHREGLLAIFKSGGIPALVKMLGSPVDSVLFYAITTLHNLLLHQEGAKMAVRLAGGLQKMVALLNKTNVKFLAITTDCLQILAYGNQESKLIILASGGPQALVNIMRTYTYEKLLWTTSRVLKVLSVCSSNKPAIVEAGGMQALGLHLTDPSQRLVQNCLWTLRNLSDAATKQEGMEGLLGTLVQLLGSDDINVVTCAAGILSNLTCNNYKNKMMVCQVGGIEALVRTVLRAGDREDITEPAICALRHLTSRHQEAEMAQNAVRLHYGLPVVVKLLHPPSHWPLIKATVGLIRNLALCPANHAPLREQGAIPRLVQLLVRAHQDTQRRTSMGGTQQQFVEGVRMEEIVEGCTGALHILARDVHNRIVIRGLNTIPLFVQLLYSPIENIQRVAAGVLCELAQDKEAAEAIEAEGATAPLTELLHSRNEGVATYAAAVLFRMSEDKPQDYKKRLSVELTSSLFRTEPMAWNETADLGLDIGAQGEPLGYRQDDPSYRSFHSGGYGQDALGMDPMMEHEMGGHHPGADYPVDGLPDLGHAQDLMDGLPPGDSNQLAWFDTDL
The description is as above. The class given is cell-based. The following applies: 293T cells transfected with wildtype β-catenin. How it is done: as §6

Data set [7] deals with xenograft colon cancer tumor. The data set can be described thus: Xenograft colon cancer tumor growth in nude mice. The class given is in vivo.

T1 sequence (Q9NQB0 whole entry): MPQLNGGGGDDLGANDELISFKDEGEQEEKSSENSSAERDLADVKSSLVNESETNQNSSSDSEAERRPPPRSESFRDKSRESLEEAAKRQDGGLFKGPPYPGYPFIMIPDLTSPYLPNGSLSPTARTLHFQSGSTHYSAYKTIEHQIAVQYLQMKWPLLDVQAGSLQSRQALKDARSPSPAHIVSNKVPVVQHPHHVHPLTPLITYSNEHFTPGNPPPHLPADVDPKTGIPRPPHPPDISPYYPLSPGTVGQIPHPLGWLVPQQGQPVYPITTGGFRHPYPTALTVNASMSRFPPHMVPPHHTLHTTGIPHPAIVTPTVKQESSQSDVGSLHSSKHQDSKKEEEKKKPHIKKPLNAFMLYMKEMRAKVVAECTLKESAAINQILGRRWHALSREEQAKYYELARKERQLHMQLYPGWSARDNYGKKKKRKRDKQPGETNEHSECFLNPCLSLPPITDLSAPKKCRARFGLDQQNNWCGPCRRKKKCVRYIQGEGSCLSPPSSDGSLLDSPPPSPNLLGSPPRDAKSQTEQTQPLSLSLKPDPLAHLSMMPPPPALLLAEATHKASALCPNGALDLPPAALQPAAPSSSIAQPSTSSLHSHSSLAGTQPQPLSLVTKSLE

`CC1=C(/C=C/C(=O)/C=C2/C(=O)Nc3ccc(F)cc32)C(C)(C)CCC1` [HI-B5]: in the data set on HT-29 colon cancer cells, the “anchorage-independent growth (colony formation in soft agar)” value (from here on “anchorage-independent growth”) is given as “suppress anchorage-independent growth”. The “transcriptional activity of β-catenin/Tcf-4 (luciferase activity)” value in data set [1] is listed as “suppress transcriptional activity of the β-catenin/Tcf-4 in a dose-dependent manner”. In addition, the “transcriptional activity of β-catenin/Tcf-4 (luciferase activity)” value in data set [2] is on record as “suppress transcriptional activity of the β-catenin/Tcf-4 in a dose-dependent manner”. Further, the “binding to Tcf-4 (ex vivo pull-down)” value on Tcf-4 was “not Tcf-4”. Besides, the “anchorage-independent growth” value in data set [3] is recorded as “suppress anchorage-independent growth”. Besides, the “binding to β-catenin (ex vivo pull-down)” value in the data set with β-catenin is “verified the binding; also recorded: can interact with β-catenin”. In addition, the “Tcf-4 expression level after chemical treatment” value with β-catenin/Tcf-4 complex (HCT116) is recorded as “not altered”. Also, the “disruption of β-catenin/Tcf-4 complex (immunoprecipitation)” value in the data set on β-catenin/Tcf-4 complex (HCT116 cell line, dose-dependent) is on record as “caused disruption of β-catenin/Tcf-4 complex”. Also, in [4], the “axin2 mRNA expression” value is “reduced”, the “c-myc mRNA expression” value is given as “reduced”, the “cyclin D1 mRNA expression” value was “reduced” and the “pparδ mRNA expression” value is “reduced”.

In the case of `CC1(C)CCC(C)(C)c2cc(C(=O)CC3(O)C(=O)Nc4ccc(F)cc43)ccc21` (stereo not drawn) [HI-B9], the “anchorage-independent growth” value in the data set on HT-29 colon cancer cells is recorded as “suppress anchorage-independent growth”. In addition, in data set [1], the “transcriptional activity of β-catenin/Tcf-4 (luciferase activity)” value is listed as “suppress transcriptional activity of the β-catenin/Tcf-4 in a dose-dependent manner”. The “transcriptional activity of β-catenin/Tcf-4 (luciferase activity)” value in [2] is on record as “suppress transcriptional activity of the β-catenin/Tcf-4 in a dose-dependent manner”. Further, the “anchorage-independent growth” value in data set [3] is “suppress anchorage-independent growth”. Besides, the “binding to β-catenin (ex vivo pull-down)” value with β-catenin is recorded as “verified the binding”. Also, in [4], the “axin2 mRNA expression” value is on record as “reduced”, the “c-myc mRNA expression” value is listed as “reduced”, the “cyclin D1 mRNA expression” value is recorded as “reduced” and the “pparδ mRNA expression” value is “reduced”.

Consider `O=c1ccc2cc(O)c(O)cc2o1` [esculetin], for which, in data set [1], the “transcriptional activity of β-catenin/Tcf-4 (luciferase activity)” value is “inhibited transcriptional activity of the β-catenin/Tcf complex”. The “effect on mutant Tcf-4/β-catenin complex” value with Tcf-4/β-catenin complex [5] is listed as “had no effect”. Besides, on Tcf-4/β-catenin complex [6], the “disruption of wildtype Tcf-4/β-catenin complex” value is listed as “effectively disrupted”. Further, in data set [7] (nude mice), the “c-Myc and cyclin D1 expression in tumors” value is “decreases”; the tumor size entry is on record as “significantly smaller”; the “xenograft colon cancer tumor growth” value is given as “effectively inhibited xenograft colon cancer tumor growth”. For the same compound, the toxicity result in data set [7] (overall statement) is reported as “non-toxic”. Further, in the data set on β-catenin, the “binding to β-catenin (ex vivo pull-down)” value was “verified the binding”. Moreover, the “disruption of nuclear Tcf-4/β-catenin complex” value with β-catenin/Tcf-4 complex (colon cancer cells) is “disrupted the nuclear Tcf-4/β-catenin complex in a dose-dependent manner”.
